Calls of active or inactive are those of the source. The rule behind the calls is not given here.
Experiments:
[1] = organism: Homo sapiens; test: Neutralization of unfractionated heparin in human poor platelet plasma at 10 to 50 ug/ml by aPTT assay relative to control; type: cell-free; settings: dose 10-50 µg/ml
[2] = organism: Homo sapiens; test: Neutralization of nadroparin calcium in human poor platelet plasma at 10 to 50 ug/ml by aPTT assay relative to control; type: cell-free; settings: dose 10-50 µg/ml
[3] = Binding affinity to dalteparin sodium in saline at pH 7.4 assessed as binding constant by ITC analysis
[4] = Binding affinity to enoxaparin sodium in saline at pH 7.4 assessed as binding constant by ITC analysis
[5] = Binding affinity to unfractionated heparin in saline at pH 7.4 assessed as change in enthalpy by ITC analysis
[6] = Binding affinity to dalteparin sodium in saline at pH 7.4 assessed as change in enthalpy by ITC analysis
[7] = Binding affinity to nadroparin calcium in saline at pH 7.4 assessed as change in enthalpy by ITC analysis
[8] = Binding affinity to dalteparin sodium in saline at pH 7.4 assessed as change in entropy by ITC analysis
[9] = Binding affinity to enoxaparin sodium in saline at pH 7.4 assessed as change in entropy by ITC analysis
[10] = Binding affinity to nadroparin calcium in saline at pH 7.4 assessed as change in entropy by ITC analysis
[11] = Binding affinity to enoxaparin sodium in saline at pH 7.4 assessed as change in gibbs free energy by ITC analysis
[12] = Binding affinity to nadroparin calcium in saline at pH 7.4 assessed as change in gibbs free energy by ITC analysis
[13] = test system: Blood; test: Ex vivo neutralization of unfractionated heparin in Sprague-Dawley rat whole blood assessed as restoration of blood coagulation at 10 to 15 ug/ml incubated for 15 mins; type: functional, tissue-based; settings: dose 10-15 µg/ml
[14] = organism: Homo sapiens; test: Reversal of anticoagulation of dalteparin sodium in human whole blood assessed as restoration of normal clotting time at 5 to 20 ug/ml incubated for 5 mins by thromboelastography; type: tissue-based; settings: dose 5-20 µg/ml
[15] = organism: Homo sapiens; test: Reversal of anticoagulation of unfractionated heparin in human whole blood assessed as restoration of normal coagulation rate at 5 to 20 ug/ml incubated for 5 mins by thromboelastography; type: tissue-based; settings: dose 5-20 µg/ml
[16] = organism: Homo sapiens; test: Reversal of anticoagulation of unfractionated heparin in human whole blood assessed as restoration of normal clotting strength at 2 to 20 ug/ml incubated for 5 mins by thromboelastography; type: tissue-based; settings: dose 2-20 µg/ml
[17] = Binding affinity to unfractionated heparin in saline at pH 7.4 assessed as increase in fluorescence by measuring inflection point by fluorescence titration method
[18] = Binding affinity to dalteparin sodium in saline at pH 7.4 assessed as increase in fluorescence by measuring inflection point by fluorescence titration method
[19] = Binding affinity to enoxaparin sodium in saline at pH 7.4 assessed as increase in fluorescence by measuring inflection point by fluorescence titration method
[20] = Binding affinity to nadroparin calcium in saline at pH 7.4 assessed as increase in fluorescence by measuring inflection point by fluorescence titration method
[21] = organism: Homo sapiens; test: Reversal of anticoagulation of nadroparin calcium in human whole blood assessed as minimum effective dose incubated for 5 mins by thromboelastography; type: tissue-based
[22] = Effect on bleeding time in ICR mouse at 0.4 mg/kg, iv treated for 5 mins; type: toxicity, organism-based; settings: in vivo
[23] = Induction of blood loss in ICR mouse at 0.4 mg/kg, iv treated for 5 mins; type: toxicity, organism-based; settings: in vivo
[24] = test system: Mus musculus; test: In vivo antagonism of unfractionated heparin induced anticoagulation in ICR mouse assessed as bleeding time at 0.4 mg/kg, iv administered via tail vein pretreated with heparin for 5 mins followed by compound addition and measured after 5 mins (reference value: 96.5 +/- 20.6 min); type: functional
[25] = test system: Mus musculus; test: In vivo antagonism of dalteparin sodium induced anticoagulation in ICR mouse assessed as bleeding time at 0.4 mg/kg, iv administered via tail vein pretreated with heparin for 5 mins followed by compound addition and measured after 5 mins (reference value: 96.5 +/- 20.6 min); type: functional
[26] = test system: Rattus norvegicus; test: In vivo antagonism of enoxaparin sodium induced anticoagulation in Sprague-Dawley rat assessed as clotting strength at 0.4 mg/kg, iv administered via tail vein pretreated with enoxaparin sodium for 5 mins followed by compound addition and measured after 2.5 mins by thromboelastography; type: functional
[27] = test system: Rattus norvegicus; test: In vivo antagonism of enoxaparin sodium induced anticoagulation in Sprague-Dawley rat assessed as clotting rate at 0.4 mg/kg, iv administered via tail vein pretreated with enoxaparin sodium for 5 mins followed by compound addition and measured after 2.5 mins by thromboelastography; type: functional
[28] = test system: Rattus norvegicus; test: (§1) In vivo antagonism of enoxaparin sodium induced anticoagulation in Sprague-Dawley rat assessed as restoration of normal clotting strength at 1 mg/kg, iv administered via tail vein pretreated with enoxaparin sodium for 5 mins followed by compound addition and measured after 2.5 mins by thromboelastography; type: functional, organism-based
[29] = test system: Rattus norvegicus; test: as §1, with “rate” for “strength”; type: functional, organism-based
[30] = Cytotoxicity against rat H9c2 cells assessed as cell viability at 300 ug/ml incubated for 24 hrs by CCK-8 assay relative to control; type: toxicity, cell-based; settings: at 300 µg/mL, read-out: Activity
[31] = Toxicity in ICR mouse assessed as histopathological changes in heart at 25 mg/kg, iv administered as single dose through tail vein and measured after 14 days by H and E staining based analysis; type: organism-based; settings: in vivo, 336 h, time 14 day
[32] = Toxicity in ICR mouse assessed as histopathological changes in spleen at 25 mg/kg, iv administered as single dose through tail vein and measured after 14 days by H and E staining based analysis; type: organism-based; settings: in vivo, 336 h, time 14 day
[33] = Toxicity in ICR mouse assessed as histopathological changes in kidneys at 25 mg/kg, iv administered as single dose through tail vein and measured after 14 days by H and E staining based analysis; type: organism-based, Kidney; settings: in vivo, 336 h, time 14 day
[34] = Toxicity in Sprague-Dawley rat assessed as change in urine indexes at 0.4 mg/kg, iv measured after 5 hrs; type: organism-based; settings: in vivo
[35] = test system: Blood; test: Blood compatibility in human whole blood assessed as effect on clotting strength at 0 to 20 ug/ml measured upto 50 mins by thromboelastography; type: toxicity, tissue-based; settings: dose 0-20 µg/ml
[36] = Blood compatibility in bovine plasma assessed as activated partial thromboplastin time at <45 ug/ml by turbidimetry method; type: toxicity, cell-free, Bos taurus; settings: cattle, dose < 45 µg/ml

NCCOc1ccc(-c2cc[n+](Cc3ccc(C(c4ccc(C[n+]5ccc(-c6ccc(OCCN)c(OCCN)c6)cc5)cc4)(c4ccc(C[n+]5ccc(-c6ccc(OCCN)c(OCCN)c6)cc5)cc4)c4ccc(C[n+]5ccc(-c6ccc(OCCN)c(OCCN)c6)cc5)cc4)cc3)cc2)cc1OCCN.[Cl-].[Cl-].[Cl-].[Cl-]
Activity [1]: 100% | Activity [2]: 99% | Ka [3]: 4.78e+07 M⁻¹ | Ka [4]: 1.79e+07 M⁻¹ | deltaH [5]: -5.86 kcal/mol | deltaH [6]: -5.07 kcal/mol | deltaH [7]: -6.53 kcal/mol | -TdeltaS [8]: -5.41 kcal/mol | -TdeltaS [9]: -2.05 kcal/mol | -TdeltaS [10]: -3.4 kcal/mol | deltaG [11]: -9.91 kcal/mol | deltaG [12]: -9.92 kcal/mol | Activity [13]: Active | Activity [14]: Active | Activity [15]: Active | Activity [16]: Active | IP [17]: 2.4 | IP [18]: 2.6 | IP [19]: 2.2 | IP [20]: 3 | MED [21]: 4 µg/mL | Activity [22]: Non-Toxic | Activity [23]: Non-Toxic | Time [24]: 22.7 min | Time [25]: 20.9 min | Activity [26]: 67 mm | Activity [27]: 1.95 min | Activity [28]: Active | Activity [29]: Active | viability at 24 h, 300 ug/ml [30]: > 80% | Activity [31]: Non-Toxic | Activity [32]: Non-Toxic | Activity [33]: Non-Toxic | Activity [34]: Non-Toxic | Activity [35]: Toxic | APTT [36]: 23 s

Source: ChEMBL document CHEMBL5518209, “Caltrop-like Small-Molecule Antidotes That Neutralize Unfractionated Heparin and Low-Molecular-Weight Heparin In Vivo” (J Med Chem, 2024)
